Reference: US20260083751A1, “ALLOSTERIC MODULATORS OF ANDROGEN RECEPTOR COACTIVATOR RECRUITMENT FOR CRPC THERAPY” (University of Pittsburgh – Of the Commonwealth System of …, priority 2022, published 2026)
Where two headings read alike, the source gives them in different places.

Experiments:
Type in all cases: cell-based
[1] = system: DHT-induced AR-mediated PSA promoter-driven transcription in PC3-AR-FL-GFP cells; assay: PSA promoter-driven transcription in PC3-AR-FL-GFP cells
Experimental: Compounds 1-5 were assessed to determine whether each compound could block DHT-induced AR-TIF2 PPI (protein-protein interaction complex) formation and/or disrupt preformed DHT-induced AR-TIF2 PPIs. Additionally, the following activities were evaluated: • inhibition of DHT-induced AR-mediated PSA promoter-driven transcription in C4-2 CRPC cells; • inhibition of DHT-induced AR-LBD PPI interactions with TIF2 and SRC1 coactivators; • inhibition of DHT-induced AR-LBD PPI interactions with TIF2 Box III-LXXLL peptide; • inhibition of H^3-DHT binding to AR-LBD; • inhibition of DHT-induced AR-mediated PSA promoter-driven transcription in PC3-AR-FL-GFP cells; • inhibition of constitutive AR-V7-mediated PSA promoter-driven transcription in PC3-AR-V7 GFP cells; • inhibition of constitutive UBE2C promoter-driven transcription in PC3-AR-V7 GFP cells; • inhibition of growth in AR-negative prostate cancer (PCa) cell lines PC3 and DU145; and • inhibition of growth in AR-positive PCa cell lines LNCap, C4-2 (CRPC), and 22Rv1 (CRPC).

[2] = system: UBE2C promoter-driven transcription in PC3-AR-V7-GFP cells; assay: UBE2C promoter driven luciferase reporter assay in PC3-AR-V7-GFP cells
Experimental: UBE2C Promoter Driven Luciferase Reporter Assay in PC3-AR-V7-GFP Cells: The pGL4.28-UBE2C 20bpX3 luciferase reporter plasmid (Xu et al., Cancer Res 2015, 75:3663-71) was provided by Dr. Yan Dong from Tulane University. FuGENE® HD transfection agent and the UBE2C-Luc plasmid (10 ng/well) were combined at a 3:1 (μL:μg) ratio, in Opti-MEM™ medium and incubated for 25 min at RT before being added to PC3-AR-V7-GFP cells that were suspended in RPMI 1640 (Gibco) media containing 1% L-glutamine (Invitrogen), and 10% fetal bovine serum (Gemini Bio-products). Bulk transfected PC3-AR-V7-GFP cells were seeded into white opaque 384-well assay plates (Greiner Bio-one, #781080) at a density of 3,000 cell per well in a volume of […] and incubated at 5% CO2, 37° C., and 95% humidity for 24 h. After 24 h, 10 μL of compounds were transferred to assay wells and the plates were returned to the incubator for an additional 24 h before 25 μL of BrightGlo® luciferase reagent (Promega) was added to the wells and the RLU's were captured on a SpectraMax® M5e plate reader (Molecular Devices LLC) as described previously (Ibid.).

[3] = system: AR-V7-mediated PSA promoter-driven transcription in PC3-AR-V7-GFP cells; assay: PSA6.1 promoter driven luciferase reporter assay in PC3-AR-V7-GFP cells
Experimental: PSA6.1 Promoter Driven Luciferase Reporter Assay in PC3-AR-V7-GFP Cells: PC3-AR-V7-GFP cells were bulk transfected with a mixture of FuGENE® HD transfection agent and the PSA-6.1-Luc reporter plasmid (20 ng/well) combined at a 3:1 (μL:μg) ratio in Opti-MEM™ medium (Gibco, Gaithersburg, MD) that had been incubated for 25 min at RT before being added to PC3-AR-V7-GFP cells that were suspended in RPMI 1640 (Gibco) media containing 1% L-glutamine (Invitrogen), and 10% fetal bovine serum (Gemini Bio-products). Bulk transfected PC3-AR-V7-GFP cells were seeded into white opaque 384-well assay plates (Greiner Bio-one, #781080) at 3,000 cells per well in a volume of 40 μL and incubated at 5% CO2, 37° C., and 95% humidity for 24 h. After 24 h, 5 μL of compounds were transferred to assay wells and the plates were returned to the incubator for an additional 24 h before 25 μL of BrightGlo® luciferase reagent (Promega) was added to the wells and the RLU's were captured on a SpectraMax® M5e plate reader (Molecular Devices LLC) as described previously (Fancher et al., Assay Drug Dev Technol. 2019, 17:364-386).

[4] = PC3-AR-V7-GFP cells, constitutive, read-out: Inhibition AR-V7 UBE2C-reporter IC50
[5] = PC3-AR-V7-GFP cells, constitutive, read-out: Inhibition AR-V7 PSA-reporter IC50
[6] = 24 h, 24 h exposure, read-out: IC50 in PSA-Luc AR-V7 reporter assay (potency range in words)
[7] = 24 h, 24 h exposure, read-out: IC50 in UBE2C-Luc AR-V7 reporter assay (potency range in words)

| Compound | IC50 [1] [µM] | IC50 [2, 4] [µM] | IC50 [3, 5] [µM] | IC50 [3, 6] [µM] | IC50 [2, 7] [µM] |
| --- | --- | --- | --- | --- | --- |
| Cc1ccccc1-c1cc(O)c2c(c1)CN(c1nc(C(N)=O)cs1)CCO2 [Compound S1-1] | < 44 | < 35 |  |  |  |
| Cc1nc(N)cc(N2CCOc3c(O)cc(-c4ccccc4C)cc3C2)n1 [Compound S1-2] | < 44 | 8.3 | 12.2 |  |  |
| Cc1nsc(NC(=O)N2CCC(Sc3ccccc3C)CC2)n1 [Compound S2-6] | ~28 | ~15 |  |  |  |
| Cc1c(-c2ccccc2F)[nH]c2ccc(CNC(=O)CCc3cn[nH]c3)cc12 [Compound S3-11] | ~50 | 12 | 3.13 | 10 to 100 | 10 to 100 |
| Cc1c(-c2ccccc2F)[nH]c2ccc(CNC(=O)CCc3cnccn3)cc12 [Compound S3-12] | > 100 |  |  | 1 to 10 | 10 to 100 |
| CC(=O)NCCC(=O)NCc1ccc2[nH]c(-c3ccccc3F)c(C)c2c1 [Compound S3-13] | > 100 | > 100 |  | 10 to 100 |  |
| Cc1c(-c2ccccc2F)[nH]c2ccc(CNC(=O)c3ccc(CO)o3)cc12 [Compound S3-14] | ~50 |  |  | 10 to 100 | 10 to 100 |
| Cc1c(-c2ccc(F)cc2)[nH]c2ccc(CNC(=O)c3ccc(CO)o3)cc12 [Compound S3-15] | ~10 |  |  | 1 to 10 | 10 to 100 |
| Cc1cccc2c(-c3ccc(O)c(F)c3)c[nH]c12 [Compound S3-17] | ~50 |  |  | 10 to 100 | 10 to 100 |
| CNC(=O)c1ccc(-c2c[nH]c3c(C)cccc23)cc1 [Compound S3-21] | > 100 | > 100 | > 100 |  |  |
